Patent US8815565B2, “Method for culturing mycoplasma contamination-free cells and method for removing mycoplasma contamination of cells” (Cellsafe Co., Ltd., priority 2010, dated 2014)

Tested on: cells contaminated with mycoplasma
Test: Mycoplasma removal potential when amphidinol derivative was used, by filter pore size
Assay type: cell-based
Experimental: A medium was removed from the cell culture (80 to 90% confluent) which was cultured in the T-75 culture flask in (1) of Example 3 and which was confirmed as being contaminated with mycoplasma. The obtained cells were washed twice with 10 ml of a phosphate buffer solution. 2 ml of trypsin-EDTA was added thereto, followed by incubating at a temperature of 37° C. for 10 minutes to detach cells. Then, DMEM (GIBCO BRL, Cat. No. 12800-058) was added thereto to obtain 10 ml of cell suspension, which was then transferred to a 15 ml conical tube. The cell suspension in the conical tube was centrifuged at a rate of 1,500 rpm for 5 minutes, and then the supernatant was removed therefrom. 10 ml of 5% FBS-containing DMEM (GIBCO BRL, Cat. No. 12800-058) was added to the conical tube to obtain a cell suspension. The obtained cell suspension was divided into two groups each having an amount of 5 ml. […] The cell suspensions of the group 1 and 2 were diluted with 5% FBS-including DMEM (GIBCO BRL, Cat. No. 12800-058) to adjust the cell concentration to about 2.5×10^5 cells/ml, respectively. 4 ml of each cell suspension of the group 1 and 2 (each having about 2.5×10^5 cells/ml of cells) was transferred to a 15 ml tube, and then […] of 5% FBS-containing DMEM (GIBCO BRL, Cat. No. 12800-058) was added thereto. […] 10 ml of each of the obtained mixtures was transferred to a T-75 culture flask, followed by culturing for 3 days in a CO2 incubator for 3 days (passage 1 sub-culturing).
The medium was removed from the cell culture (80 to 90% confluent) which was cultured in the T-75 culture flask for 3 days. The obtained cells were washed twice with 10 ml of a phosphate buffer solution. 2 ml of trypsin-EDTA was added thereto, followed by incubating at a temperature of 37° C. for 10 minutes to detach the cells. Then, DMEM (GIBCO BRL, Cat. No. 12800-058) was added thereto to obtain 10 ml of cell suspension, which was then transferred to a 15 ml conical tube. The cell suspension in the conical tube was centrifuged at a rate of 1,500 rpm for 5 minutes, and then the supernatant was removed therefrom. 10 ml of 10% FBS-containing DMEM (GIBCO BRL, Cat. No. 12800-058) was added to the conical tube to obtain a cell suspension. The obtained cell suspension was divided into two groups each having an amount of 5 ml. […] The cell suspensions of the group 1 and 2 were diluted with 10% FBS-including DMEM (GIBCO BRL, Cat. No. 12800-058) to adjust the cell concentration to about 2.5×10^5 cells/ml, respectively. 4 ml of each cell suspension of the group 1 and 2 (each having about 2.5×10^5 cells/ml of cells) was transferred to a 15 ml tube, and then 5.5 ml of 10% FBS-containing DMEM (GIBCO BRL, Cat. No. 12800-058) was added thereto. […] 10 ml of each of the obtained mixtures was transferred to a T-75 culture flask, followed by culturing […] (passage 2 sub-culturing). The sub-culturing was performed twice more, and thus, passage 4 sub-culturing steps in total were performed.
Mycoplasma contamination was measured regarding the respective cells of the additional passages 1, 3, 6, 10, 12, 15, and 33 after the initial passage 4 treatments. Whether mycoplasma was removed was measured with a mycoplasma diagnosis kit (Promokine, Germany; Cellsafe Co., Ltd., Korea) according to the enclosed protocol. The resulting PCR products were electrophoresed on a 1% agarose gel to measure the mycoplasma contamination.
Sub-culturing was performed in the same manner as in (1), except that 2 μg/ml of the compound of Formula 3 was used as a reagent for removing mycoplasma , and the filters (Millipore) having pore sizes of 11, 20, 30, 60, 80, 90, and 100 μm and the filters (Falcon) having pore sizes of 40, 50, and 70 μm were used, and then, the mycoplasma contamination was measured.

C=C/C=C/CC/C=C/C=C/C=C/CC/C=C/C(O)C(O)C1OC(C(O)C(O)C(=C)CCC(O)C2CC(O)C(O)C(C(O)C(O)/C=C(\C)CCC(O)CC(O)C(O)C(C)CC(O)C(O)CCCCCC(O)CCCC(O)/C=C/CC(O)/C=C/CC(O)CO)O2)CC(O)C1O (centres unmarked) [AM3, amphidinol 3]
mycoplasma contamination (2 μg/ml, Pore size 11 μm, Passage 1 after treatment): − | mycoplasma contamination (2 μg/ml, Pore size 11 μm, Passage 3 after treatment): − | mycoplasma contamination (2 μg/ml, Pore size 11 μm, Passage 6 after treatment): − | mycoplasma contamination (2 μg/ml, Pore size 11 μm, Passage 10 after treatment): − | mycoplasma contamination (2 μg/ml, Pore size 11 μm, Passage 12 after treatment): − | mycoplasma contamination (2 μg/ml, Pore size 11 μm, Passage 15 after treatment): − | mycoplasma contamination (2 μg/ml, Pore size 11 μm, Passage 33 after treatment): − | mycoplasma contamination (2 μg/ml, Pore size 20 μm, Passage 1 after treatment): − | mycoplasma contamination (2 μg/ml, Pore size 20 μm, Passage 3 after treatment): − | mycoplasma contamination (2 μg/ml, Pore size 20 μm, Passage 6 after treatment): − | mycoplasma contamination (2 μg/ml, Pore size 20 μm, Passage 10 after treatment): − | mycoplasma contamination (2 μg/ml, Pore size 20 μm, Passage 12 after treatment): − | mycoplasma contamination (2 μg/ml, Pore size 20 μm, Passage 15 after treatment): − | mycoplasma contamination (2 μg/ml, Pore size 20 μm, Passage 33 after treatment): − | mycoplasma contamination (2 μg/ml, Pore size 30 μm, Passage 1 after treatment): − | mycoplasma contamination (2 μg/ml, Pore size 30 μm, Passage 3 after treatment): − | mycoplasma contamination (2 μg/ml, Pore size 30 μm, Passage 6 after treatment): − | mycoplasma contamination (2 μg/ml, Pore size 30 μm, Passage 10 after treatment): − | mycoplasma contamination (2 μg/ml, Pore size 30 μm, Passage 12 after treatment): − | mycoplasma contamination (2 μg/ml, Pore size 30 μm, Passage 15 after treatment): − | mycoplasma contamination (2 μg/ml, Pore size 30 μm, Passage 33 after treatment): − | mycoplasma contamination (2 μg/ml, Pore size 40 μm, Passage 1 after treatment): − | mycoplasma contamination (2 μg/ml, Pore size 40 μm, Passage 3 after treatment): − | mycoplasma contamination (2 μg/ml, Pore size 40 μm, Passage 6 after treatment): − | mycoplasma contamination (2 μg/ml, Pore size 40 μm, Passage 10 after treatment): − | mycoplasma contamination (2 μg/ml, Pore size 40 μm, Passage 12 after treatment): − | mycoplasma contamination (2 μg/ml, Pore size 40 μm, Passage 15 after treatment): − | mycoplasma contamination (2 μg/ml, Pore size 40 μm, Passage 33 after treatment): − | mycoplasma contamination (2 μg/ml, Pore size 50 μm, Passage 1 after treatment): − | mycoplasma contamination (2 μg/ml, Pore size 50 μm, Passage 3 after treatment): − | mycoplasma contamination (2 μg/ml, Pore size 50 μm, Passage 6 after treatment): − | mycoplasma contamination (2 μg/ml, Pore size 50 μm, Passage 10 after treatment): − | mycoplasma contamination (2 μg/ml, Pore size 50 μm, Passage 12 after treatment): − | mycoplasma contamination (2 μg/ml, Pore size 50 μm, Passage 15 after treatment): − | mycoplasma contamination (2 μg/ml, Pore size 50 μm, Passage 33 after treatment): − | mycoplasma contamination (2 μg/ml, Pore size 60 μm, Passage 1 after treatment): − | mycoplasma contamination (2 μg/ml, Pore size 60 μm, Passage 3 after treatment): − | mycoplasma contamination (2 μg/ml, Pore size 60 μm, Passage 6 after treatment): − | mycoplasma contamination (2 μg/ml, Pore size 60 μm, Passage 10 after treatment): − | mycoplasma contamination (2 μg/ml, Pore size 60 μm, Passage 12 after treatment): − | mycoplasma contamination (2 μg/ml, Pore size 60 μm, Passage 15 after treatment): − | mycoplasma contamination (2 μg/ml, Pore size 60 μm, Passage 33 after treatment): − | mycoplasma contamination (2 μg/ml, Pore size 70 μm, Passage 1 after treatment): − | mycoplasma contamination (2 μg/ml, Pore size 70 μm, Passage 3 after treatment): − | mycoplasma contamination (2 μg/ml, Pore size 70 μm, Passage 6 after treatment): − | mycoplasma contamination (2 μg/ml, Pore size 70 μm, Passage 10 after treatment): − | mycoplasma contamination (2 μg/ml, Pore size 70 μm, Passage 12 after treatment): − | mycoplasma contamination (2 μg/ml, Pore size 70 μm, Passage 15 after treatment): − | mycoplasma contamination (2 μg/ml, Pore size 70 μm, Passage 33 after treatment): − | mycoplasma contamination (2 μg/ml, Pore size 80 μm, Passage 1 after treatment): − | mycoplasma contamination (2 μg/ml, Pore size 80 μm, Passage 3 after treatment): − | mycoplasma contamination (2 μg/ml, Pore size 80 μm, Passage 6 after treatment): − | mycoplasma contamination (2 μg/ml, Pore size 80 μm, Passage 10 after treatment): − | mycoplasma contamination (2 μg/ml, Pore size 80 μm, Passage 12 after treatment): − | mycoplasma contamination (2 μg/ml, Pore size 80 μm, Passage 15 after treatment): − | mycoplasma contamination (2 μg/ml, Pore size 80 μm, Passage 33 after treatment): − | mycoplasma contamination (2 μg/ml, Pore size 90 μm, Passage 1 after treatment): − | mycoplasma contamination (2 μg/ml, Pore size 90 μm, Passage 3 after treatment): − | mycoplasma contamination (2 μg/ml, Pore size 90 μm, Passage 6 after treatment): − | mycoplasma contamination (2 μg/ml, Pore size 90 μm, Passage 10 after treatment): − | mycoplasma contamination (2 μg/ml, Pore size 90 μm, Passage 12 after treatment): − | mycoplasma contamination (2 μg/ml, Pore size 90 μm, Passage 15 after treatment): − | mycoplasma contamination (2 μg/ml, Pore size 90 μm, Passage 33 after treatment): − | mycoplasma contamination (2 μg/ml, Pore size 100 μm, Passage 1 after treatment): − | mycoplasma contamination (2 μg/ml, Pore size 100 μm, Passage 3 after treatment): − | mycoplasma contamination (2 μg/ml, Pore size 100 μm, Passage 6 after treatment): − | mycoplasma contamination (2 μg/ml, Pore size 100 μm, Passage 10 after treatment): − | mycoplasma contamination (2 μg/ml, Pore size 100 μm, Passage 12 after treatment): − | mycoplasma contamination (2 μg/ml, Pore size 100 μm, Passage 15 after treatment): − | mycoplasma contamination (2 μg/ml, Pore size 100 μm, Passage 33 after treatment): − | mycoplasma contamination (filter having a pore size of 10 to 100 μM): completely removed
